Laboratory results as given in patent US8541460B2, “PDK-1/Akt signaling inhibitors” (The Ohio State University, priority 2003, dated 2013).

Assays:
SW-620 = assay: NCI DTP cell line screen (SRB), Colon Cancer; format: cell-based
Description: (§1) Screening of compounds 70 and 71 against several cancer cell lines The human tumor cell lines of the cancer screening panel are grown in RPMI 1640 medium containing 5% fetal bovine serum and 2 mM L-glutamine. For a typical screening experiment, cells are inoculated into 96 well microtiter plates in 100 μL at plating densities ranging from 5,000 to 40,000 cells/well depending on the doubling time of individual cell lines. After cell inoculation, the microtiter plates are incubated at 37° C., 5% CO2, 95% air and 100% relative humidity for 24 h prior to addition of experimental drugs.
(§2) After 24 h, two plates of each cell line are fixed in situ with TCA, to represent a measurement of the cell population for each cell line at the time of drug addition (Tz). Experimental drugs are solubilized in dimethyl sulfoxide at 400-fold the desired final maximum test concentration and stored frozen prior to use. At the time of drug addition, an aliquot of frozen concentrate is thawed and diluted to twice the desired final maximum test concentration with complete medium containing 50 μg/ml gentamicin. Additional four, 10-fold or ½ log serial dilutions are made to provide a total of five drug concentrations plus control. Aliquots of 100 μl of these different drug dilutions are added to the appropriate microtiter wells already containing 100 μl of medium, resulting in the required final drug concentrations.
(§3) Following drug addition, the plates are incubated for an additional 48 h at 37° C., 5% CO2, 95% air, and 100% relative humidity. For adherent cells, the assay is terminated by the addition of cold TCA. Cells are fixed in situ by the gentle addition of 50 μl of cold 50% (w/v) TCA (final concentration, 10% TCA) and incubated for 60 minutes at 4° C. The supernatant is discarded, and the plates are washed five times with tap water and air dried. Sulforhodamine B (SRB) solution (100 μl) at 0.4% (w/v) in 1% acetic acid is added to each well, and plates are incubated for 10 minutes at room temperature. After staining, unbound dye is removed by washing five times with 1% acetic acid and the plates are air dried. Bound stain is subsequently solubilized with 10 mM trizma base, and the absorbance is read on an automated plate reader at a wavelength of 515 nm. For suspension cells, the methodology is the same except that the assay is terminated by fixing settled cells at the bottom of the wells by gently adding 50 μl of 80% TCA (final concentration, 16% TCA). Using the seven absorbance measurements [time zero, (Tz), control growth, (C), and test growth in the presence of drug at the five concentration levels (Ti)], the percentage growth is calculated at each of the drug concentrations levels. Percentage growth inhibition is calculated as: [(Ti−Tz)/(C−Tz)]×100 for concentrations for which Ti>/=Tz [(Ti−Tz)/Tz]×100 for concentrations for which Ti<Tz
(§4) Three dose response parameters are calculated for each experimental agent. […] The drug concentration resulting in total growth inhibition (TGI) is calculated from Ti=Tz. […] Values are calculated for each of these three parameters if the level of activity is reached; however, if the effect is not reached or is exceeded, the value for that parameter is expressed as greater or less than the maximum or minimum concentration tested.
(§5) The methods described were used to test compounds 70 and 71 on a panel of sixty cell lines under a screening service provided by the Developmental Therapeutics Program at the National Institutes of Health. Shown in FIG. 1C are 1, RPMI-8226 leukemia cells; 2; NCI-H322M non-small cell lung cancer cells; 3, HT29 colon cancer cells; 4, U251 CNS cancer cells; 5, SK-MEL-28 melanoma cancer cells; 6, SK-OV-3 ovarian cancer cells; 7, RXF 393 renal cancer cells; 8, PC-3 prostate cancer cells; 9, MDA-MB-231 breast cancer cells.

HCT-116 = assay: NCI DTP cell line screen (SRB), Colon Cancer; format: cell-based
Description: as §1, §2, §3, §4, §5

HOP-92 = assay: NCI DTP cell line screen (SRB), Non-Small Cell Lung Cancer; format: cell-based
SR = assay: NCI DTP cell line screen (SRB), Leukemia; format: cell-based
Description: as §1, §2, §3, §4, §5

K-562 = assay: NCI DTP cell line screen (SRB), Leukemia; format: cell-based
Description: as §1, §2, §3, §4, §5

MOLT-4 = assay: NCI DTP cell line screen (SRB), Leukemia; format: cell-based
Description: as §1, §2, §3, §4, §5

NCI-H522 = assay: NCI DTP cell line screen (SRB), Non-Small Cell Lung Cancer; format: cell-based, human; conditions: for TGI: in M (unit assumed)
Description: as §1, §2, §3, §4, §5

CCRF-CEM = assay: NCI DTP cell line screen (SRB), Leukemia; format: cell-based
[1] = read-out: LC50 (the source's name)

## N=C(N)Nc1ccc(-n2nc(C(F)(F)F)cc2-c2ccc3c(ccc4ccccc43)c2)cc1 [Compound 71, 4-[5-(2-Phenanthrenyl)-3-(trifluoromethyl)-1H-pyrazol-1-yl]-phenyl-guanidine]
SW-620
  GI50: 1750 nM
  TGI: 3.13E−06
SW-620; Log10 Concentration −4.0
  Mean Optical Densities: 0.015
  Percent Growth: −92%
SW-620; Log10 Concentration −5.0
  Mean Optical Densities: −0.048
  Percent Growth: −100%
SW-620; Log10 Concentration −6.0
  Mean Optical Densities: 1.060
  Percent Growth: 98%
SW-620; Log10 Concentration −7.0
  Mean Optical Densities: 0.993
  Percent Growth: 91%
SW-620; Log10 Concentration −8.0
  Mean Optical Densities: 0.923
  Percent Growth: 83%
HCT-116
  GI50: 1290 nM
  TGI: 2.55E−06
HCT-116; Log10 Concentration −4.0
  Mean Optical Densities: 0.058
  Percent Growth: −49%
HCT-116; Log10 Concentration −5.0
  Mean Optical Densities: −0.022
  Percent Growth: −100%
HCT-116; Log10 Concentration −6.0
  Mean Optical Densities: 0.525
  Percent Growth: 68%
HCT-116; Log10 Concentration −7.0
  Mean Optical Densities: 0.633
  Percent Growth: 86%
HCT-116; Log10 Concentration −8.0
  Mean Optical Densities: 0.607
  Percent Growth: 82%
HOP-92
  GI50: 1010 nM
  TGI: 2.26E−06
HOP-92; Log10 Concentration −4.0
  Mean Optical Densities: 0.767
  Percent Growth: −28%
HOP-92; Log10 Concentration −5.0
  Mean Optical Densities: 0.089
  Percent Growth: −92%
HOP-92; Log10 Concentration −6.0
  Mean Optical Densities: 1.361
  Percent Growth: 50%
HOP-92; Log10 Concentration −7.0
  Mean Optical Densities: 1.541
  Percent Growth: 82%
HOP-92; Log10 Concentration −8.0
  Mean Optical Densities: 1.567
  Percent Growth: 86%
SR
  GI50: 38.6 nM
  TGI: 3.79E−07
SR; Log10 Concentration −4.0
  Mean Optical Densities: 0.287
  Percent Growth: −21%
SR; Log10 Concentration −5.0
  Mean Optical Densities: 0.234
  Percent Growth: −36%
SR; Log10 Concentration −6.0
  Mean Optical Densities: 0.254
  Percent Growth: −30%
SR; Log10 Concentration −7.0
  Mean Optical Densities: 0.583
  Percent Growth: 42%
SR; Log10 Concentration −8.0
  Mean Optical Densities: 0.688
  Percent Growth: 62%
SR; [1]
  CC50: > 100000 nM
K-562
  GI50: 326 nM
  TGI: 1.52E−06
K-562; Log10 Concentration −4.0
  Mean Optical Densities: 0.119
  Percent Growth: −60%
K-562; Log10 Concentration −5.0
  Mean Optical Densities: 0.126
  Percent Growth: −58%
K-562; Log10 Concentration −6.0
  Mean Optical Densities: 0.438
  Percent Growth: 13%
K-562; Log10 Concentration −7.0
  Mean Optical Densities: 1.283
  Percent Growth: 89%
K-562; Log10 Concentration −8.0
  Mean Optical Densities: 1.338
  Percent Growth: 94%
K-562; [1]
  CC50: 7770 nM
MOLT-4
  GI50: 233 nM
  TGI: 1.98E−06
MOLT-4; Log10 Concentration −4.0
  Mean Optical Densities: 0.143
  Percent Growth: −54%
MOLT-4; Log10 Concentration −5.0
  Mean Optical Densities: 0.143
  Percent Growth: −54%
MOLT-4; Log10 Concentration −6.0
  Mean Optical Densities: 0.461
  Percent Growth: 23%
MOLT-4; Log10 Concentration −7.0
  Mean Optical Densities: 0.736
  Percent Growth: 66%
MOLT-4; Log10 Concentration −8.0
  Mean Optical Densities: 0.833
  Percent Growth: 81%
MOLT-4; [1]
  CC50: 8750 nM
NCI-H522
  GI50: 1450 nM
  TGI: 2.82E−06
NCI-H522; Log10 Concentration −4.0
  Mean Optical Densities: 0.439
  Percent Growth: −43%
NCI-H522; Log10 Concentration −5.0
  Mean Optical Densities: 0.037
  Percent Growth: −95%
NCI-H522; Log10 Concentration −6.0
  Mean Optical Densities: 1.471
  Percent Growth: 78%
NCI-H522; Log10 Concentration −7.0
  Mean Optical Densities: 1.558
  Percent Growth: 87%
NCI-H522; Log10 Concentration −8.0
  Mean Optical Densities: 1.509
  Percent Growth: 82%
CCRF-CEM
  GI50: 1230 nM
  TGI: 2.48E−06
CCRF-CEM; Log10 Concentration −4.0
  Mean Optical Densities: 0.140
  Percent Growth: −53%
CCRF-CEM; Log10 Concentration −5.0
  Mean Optical Densities: 0.002
  Percent Growth: −99%
CCRF-CEM; Log10 Concentration −6.0
  Mean Optical Densities: 0.718
  Percent Growth: 65%
CCRF-CEM; Log10 Concentration −7.0
  Mean Optical Densities: 0.811
  Percent Growth: 79%
CCRF-CEM; Log10 Concentration −8.0
  Mean Optical Densities: 0.808
  Percent Growth: 78%
CCRF-CEM; [1]
  CC50: 5000 nM

## NCC(=O)Nc1ccc(-n2nc(C(F)(F)F)cc2-c2ccc3c(ccc4ccccc43)c2)cc1 [Compound 70, 2-Amino-N-{4-[5-(2-phenanthrenyl)-3-(trifluoromethyl)-1H-pyrazol-1-yl]-phenyl}-acetamide]
SW-620
  TGI: 4.23E−06
SW-620; Log10 Concentration −4.0
  Percent Growth: −28%
SW-620; Log10 Concentration −5.0
  Percent Growth: −32%
SW-620; Log10 Concentration −6.0
  Percent Growth: 54%
SW-620; Log10 Concentration −7.0
  Percent Growth: 100%
SW-620; Log10 Concentration −8.0
  Percent Growth: 100%
HCT-116; Log10 Concentration −4.0
  Percent Growth: 5%
HCT-116; Log10 Concentration −5.0
  Percent Growth: −9%
HCT-116; Log10 Concentration −6.0
  Percent Growth: 57%
HCT-116; Log10 Concentration −7.0
  Percent Growth: 93%
HCT-116; Log10 Concentration −8.0
  Percent Growth: 107%
HOP-92
  TGI: 3.07E−06
HOP-92; Log10 Concentration −4.0
  Percent Growth: −75%
HOP-92; Log10 Concentration −5.0
  Percent Growth: −91%
HOP-92; Log10 Concentration −6.0
  Percent Growth: 87%
HOP-92; Log10 Concentration −7.0
  Percent Growth: 89%
HOP-92; Log10 Concentration −8.0
  Percent Growth: 96%
SR
  TGI: 4.17E−06
SR; Log10 Concentration −5.0
  Percent Growth: −27%
SR; Log10 Concentration −6.0
  Percent Growth: 45%
SR; Log10 Concentration −7.0
  Percent Growth: 80%
SR; Log10 Concentration −8.0
  Percent Growth: 84%
K-562
  TGI: 3.34E−06
K-562; Log10 Concentration −4.0
  Percent Growth: −17%
K-562; Log10 Concentration −5.0
  Percent Growth: −30%
K-562; Log10 Concentration −6.0
  Percent Growth: 33%
K-562; Log10 Concentration −7.0
  Percent Growth: 62%
K-562; Log10 Concentration −8.0
  Percent Growth: 97%
MOLT-4
  TGI: 3.10E−06
MOLT-4; Log10 Concentration −4.0
  Percent Growth: −6%
MOLT-4; Log10 Concentration −5.0
  Percent Growth: −42%
MOLT-4; Log10 Concentration −6.0
  Percent Growth: 41%
MOLT-4; Log10 Concentration −7.0
  Percent Growth: 87%
MOLT-4; Log10 Concentration −8.0
  Percent Growth: 89%
NCI-H522; Log10 Concentration −4.0
  Percent Growth: −37%
NCI-H522; Log10 Concentration −5.0
  Percent Growth: −66%
NCI-H522; Log10 Concentration −6.0
  Percent Growth: 97%
NCI-H522; Log10 Concentration −7.0
  Percent Growth: 122%
NCI-H522; Log10 Concentration −8.0
  Percent Growth: 110%
NCI-H522
  TGI: 3.94E−06
CCRF-CEM
  TGI: 2.49E−06
CCRF-CEM; Log10 Concentration −4.0
  Percent Growth: −34%
CCRF-CEM; Log10 Concentration −5.0
  Percent Growth: −43%
CCRF-CEM; Log10 Concentration −6.0
  Percent Growth: 28%
CCRF-CEM; Log10 Concentration −7.0
  Percent Growth: 81%
CCRF-CEM; Log10 Concentration −8.0
  Percent Growth: 74%
